Results as given in US7863449B2, “Modulators of muscarinic receptors” (Vertex Pharmaceuticals Incorporated, priority 2004, dated 2011).

Legend:
M1 muscarinic receptor = molecular target: T1, M1 muscarinic receptor (Homo sapiens, UniProt P11229); assay: Functional mobilization of intracellular calcium (FLIPR), M1-CHO cells; type: cell-based; settings: for Emax: 100% efficacy is the maximum response obtained using Carbachol as a control; for M1 Activity: M1-CHO cells, FLIPR calcium mobilization
T1 construct: expressed in transfected cells; host or cells: CHO (M1-CHO)
T1 sequence (P11229 1-460): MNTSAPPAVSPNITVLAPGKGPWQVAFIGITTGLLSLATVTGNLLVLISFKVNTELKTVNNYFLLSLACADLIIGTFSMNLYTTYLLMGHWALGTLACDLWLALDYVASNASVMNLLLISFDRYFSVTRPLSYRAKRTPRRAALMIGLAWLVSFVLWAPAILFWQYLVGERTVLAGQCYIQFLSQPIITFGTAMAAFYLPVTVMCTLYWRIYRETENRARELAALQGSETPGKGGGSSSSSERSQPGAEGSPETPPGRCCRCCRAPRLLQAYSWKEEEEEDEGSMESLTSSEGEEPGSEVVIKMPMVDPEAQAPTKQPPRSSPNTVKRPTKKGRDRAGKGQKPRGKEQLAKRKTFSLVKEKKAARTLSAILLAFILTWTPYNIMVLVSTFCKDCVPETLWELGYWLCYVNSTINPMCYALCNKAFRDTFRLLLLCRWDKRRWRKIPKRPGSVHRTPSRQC
Protocol: (§1) Functional Mobilization of Intracellular Calcium to Determine Muscarinic Receptor Activity:
(§2) CHO cells expressing muscarinic receptors (M1 to M5) are grown as monolayers in tissue culture flasks at 37° C. in a humidified atmosphere containing 5% CO2 and passaged every 3-5 days. The growth media is Dulbecco's modified eagles medium (DMEM, Gibco Cat# 12430-054), containing 25 mM Hepes and supplemented with Fetal Bovine Serum (Hyclone, cat# SH30071.03), 0.1 mM of MEM non-essential amino acids (GIBCO, Cat# 11140-050), 1 mM MEM Sodium Pyruvate (GIBCO Cat# 11360-070) and 100 units/ml of Penicillin G and 100 μg/ml of Streptomycin (GIBCO Cat# 15140-122). The recombinant muscarinic receptor cell lines are grown under antibiotic pressure with media containing 25 μg/ml zeocin and 500 μg/ml G418 (M1-CHO), 4 μg/ml puromycin, 50 μg/ml zeocin and 2.5 μg/ml blasticidin (M2 and M4-CHO) or 50 μg/ml zeocin and 4 μg/ml puromycin (M3 and M5-CHO).
(§3) Cells are harvested at 80-90% confluence using Versene (GIBCO Cat# 15040-066), collected by centrifugation and seeded 18-24 hrs prior to running the calcium assay at a density of 5,000-10,000 cells/well in […], clear-bottomed 384-well plates (BD Biocoat, poly-D-lysine, Cat#356663). The day of the experiment, the cells are washed with a plate washer (Bioteck Instruments, ELX 405) using bath1 buffer (140-mM NaCl, 4.5-mM KCl, 2-mM CaCl2, 1-mM MgCl2, 10-mM Hepes-Na, 10-mM Glucose, pH 7.4, with NaOH) containing 1 mM Probenecid. Next, the calcium dye Fluo-3 (25 μl/well of Fluo-3 AM at 4 μM, Molecular Probes F-1241, in Bath 1 buffer containing 1 mM Probenecid) is added to the 25 μl of Bath 1 remaining in each well after the plate wash and the dye is loaded at 37° C. in the tissue culture incubator for 60-90 min. The fluorescent dye is removed using the plate washer with Bath 1 containing 1 mM Probenecid, leaving 25 μl/well of this solution after the wash. Alternatively, cells can be loaded with the calcium indicator from Molecular Devices (Calcium 3 Assay Reagents, Cat # R7181) adding 5 μl of a 5× solution dye in Bath 1 containing 1 mM Probenecid (10 ml per dye flask cat# R7182 to generate a solution 20×) to 20 μl of the same buffer. After loading for 60 min, the experiment can be run without having to remove the dye.
(§4) Compounds are prepared at a 2× fold concentration in a 96-well plate (round bottom, Costar Corning cat# 3656), by reconstituting the pre-spotted compounds in bath 1 containing 1 mM probenecid. The final concentration DMSO is 0.5%, and the amount of DMSO is normalized across the assay plate. To determine an agonist action of the compounds on muscarinic receptors, the reconstituted compounds are added (25 μl compound/well) to the cell assay plate (containing 25 μl/well) using the multi-channel robotic system of the FLIPR 3 Instrument (Molecular Devices, Sunnyvale, Calif.). To determine a functional inhibitory action of the compounds on muscarinic receptors, the reconstituted compounds are added (25 μl compound/well) to the assay plate and pre-incubated for 15 min prior to adding 25 μl of Carbachol at 3× the EC80 for each muscarinic subtype. Alternatively, the compounds can be co-applied simultaneously with the agonist. In both assay modes, the fluorescence is recorded for 60 sec (excitation wavelength is […] and emission wavelength 540 nm) using the FLIPR 3 instrument.
(§5) The potency, efficacy and selectivity of the muscarinic compounds were evaluated by screening the compound activity across the whole family (M1 to M5 cells). Compounds were also screened for activity on other proteins such as other GPCRs and ion channels to determine selectivity on M4 receptors.

M4 muscarinic receptor = molecular target: T2, M4 muscarinic receptor (Homo sapiens, UniProt P08173); assay: Functional mobilization of intracellular calcium (FLIPR), M4-CHO cells; type: cell-based; settings: for Emax: 100% efficacy is the maximum response obtained using Carbachol as a control; for M4 Activity: M4-CHO cells, FLIPR calcium mobilization
T2 construct: expressed in transfected cells; host or cells: CHO (M4-CHO)
T2 sequence (P08173 1-479): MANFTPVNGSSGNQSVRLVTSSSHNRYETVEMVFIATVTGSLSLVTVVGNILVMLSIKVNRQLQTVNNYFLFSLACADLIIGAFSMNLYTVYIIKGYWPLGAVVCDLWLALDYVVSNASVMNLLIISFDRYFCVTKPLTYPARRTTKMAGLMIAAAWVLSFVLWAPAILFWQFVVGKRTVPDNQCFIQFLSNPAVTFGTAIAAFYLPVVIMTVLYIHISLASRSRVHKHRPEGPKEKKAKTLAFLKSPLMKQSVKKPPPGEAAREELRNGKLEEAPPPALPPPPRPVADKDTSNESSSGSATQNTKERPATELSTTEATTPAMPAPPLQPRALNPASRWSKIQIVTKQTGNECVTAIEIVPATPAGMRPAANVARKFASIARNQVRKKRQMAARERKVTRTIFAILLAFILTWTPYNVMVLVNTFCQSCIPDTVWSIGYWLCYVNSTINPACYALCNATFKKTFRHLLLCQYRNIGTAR
Protocol: as §1, §2, §3, §4, §5

Row | SMILES | Emax (M1 muscarinic receptor) [%] | M1 Activity (M1 muscarinic receptor) | Emax (M4 muscarinic receptor) [%] | M4 Activity (M4 muscarinic receptor)
1 | CCCOC(=O)N1C2CCC1CC(N1CCC3(CC1)CN(C(C)=O)Cc1ccccc13)C2 (stereo not shown) [compound 357] | 25 to 100 | +++ (activity was measured to be less than 1.0 μM) | 25 to 100 | +++ (activity was measured to be less than 1.0 μM)
2 | CCOC(=O)N1CCC(CN2CCC3(CC2)CN(C(=O)OC(C)C)Cc2ccccc23)CC1 [compound 309] | 25 to 100 | +++ (activity was measured to be less than 1.0 μM) | 25 to 100 | +++ (activity was measured to be less than 1.0 μM)
3 | CCOC(=O)N1CCC(CN2CCC3(CC2)OC(=O)c2ccc(C)cc23)CC1 [compound 145] | 25 to 100 | +++ (activity was measured to be less than 1.0 μM) | 25 to 100 | +++ (activity was measured to be less than 1.0 μM)
4 | CCOC(=O)N1CCC(N2CCC3(CC2)CN(CCC(C)C)Cc2ccccc23)CC1 [compound 313, ethyl 4-(2-isopentyl-2,3-dihydro-1H-spiro[isoquinoline-4,4′-piperidine]-1′-yl)piperidine-1-carboxylate] | > 100 | +++ (activity was measured to be less than 1.0 μM) | 25 to 100 | +++ (activity was measured to be less than 1.0 μM)
5 | COC(=O)N1CCC(N2CCC3(CC2)CN(C(C)=O)Cc2ccccc23)CC1 [compound 133] | 25 to 100 | +++ (activity was measured to be less than 1.0 μM) | 25 to 100 | +++ (activity was measured to be less than 1.0 μM)
6 | O=C1NC2(CCN(CC3CCOC3)CC2)c2ccccc21 (stereo not shown) [compound 352] | < 25 | + (activity was measured to be greater than 5.0 μM) | < 25 | + (activity was measured to be greater than 5.0 μM)
7 | CCOC(=O)N1C2CCC1CC(N1CCC3(CC1)CN(S(=O)(=O)c1ccc(-c4ccccc4)cc1)Cc1ccccc13)C2 (stereo not shown) [compound 245] | 25 to 100 | ++ (activity was measured to be from 1.0 μM to 5.0 μM) | 25 to 100 | ++ (activity was measured to be from 1.0 μM to 5.0 μM)
8 | O=C(OC1CCC1)N1Cc2ccccc2C2(CCN(C3CC4CCC(C3)N4C(=O)O[C@H]3CCOC3)CC2)C1 (stereo partly shown) [compound 95] | 25 to 100 | +++ (activity was measured to be less than 1.0 μM) | 25 to 100 | +++ (activity was measured to be less than 1.0 μM)
9 | CC(C)OC(=O)N1Cc2ccccc2C2(CCN(C3CC4CCC(C3)N4C(=O)O[C@@H]3CCOC3)CC2)C1 (stereo partly shown) [compound 195] | 25 to 100 | +++ (activity was measured to be less than 1.0 μM) | 25 to 100 | +++ (activity was measured to be less than 1.0 μM)
10 | CCOC(=O)N1C2CCC1CC(N1CCC3(CC1)CN(C(=O)C1CC1)Cc1ccccc13)C2.Cl (stereo not shown) [compound 224, Ethyl 3-(2-(cyclopropanecarbonyl)-2,3-dihydro-1H-spiro[isoquinoline-4,4′-piperidine]-1′-yl)-8-azabicyclo-[3.2.1]octane-8-carboxylate hydrochloride] | 25 to 100 | +++ (activity was measured to be less than 1.0 μM) | 25 to 100 | +++ (activity was measured to be less than 1.0 μM)
11 | CCCOC(=O)N1C2CCC1CC(N1CCC3(CC1)CN(S(=O)(=O)CCC)Cc1ccccc13)C2 (stereo not shown) [compound 353] | 25 to 100 | +++ (activity was measured to be less than 1.0 μM) | 25 to 100 | +++ (activity was measured to be less than 1.0 μM)
12 | CC(=O)N1Cc2ccccc2C2(CCN(C3CCOCC3)CC2)C1 [compound 215] | 25 to 100 | ++ (activity was measured to be from 1.0 μM to 5.0 μM) | 25 to 100 | + (activity was measured to be greater than 5.0 μM)
13 | CCOC(=O)N1C2CCC1CC(N1CCC3(CC1)CN(C(=O)OC1CCC1)Cc1ccccc13)C2 (stereo not shown) [compound 27] | 25 to 100 | +++ (activity was measured to be less than 1.0 μM) | 25 to 100 | +++ (activity was measured to be less than 1.0 μM)
14 | CC(=O)N1Cc2ccccc2C2(CCN(CC3CCCOC3)CC2)C1 (stereo not shown) [compound 266] | < 25 | + (activity was measured to be greater than 5.0 μM) | < 25 | + (activity was measured to be greater than 5.0 μM)
15 | CC(=O)N1Cc2ccccc2C2(CCN(Cc3nccs3)CC2)C1 [compound 98] | < 25 | + (activity was measured to be greater than 5.0 μM) | < 25 | + (activity was measured to be greater than 5.0 μM)
16 | CCOc1ccc(CN2CCC3(CC2)CN(C(C)=O)Cc2ccccc23)cc1 [compound 137] | < 25 | + (activity was measured to be greater than 5.0 μM) | < 25 | + (activity was measured to be greater than 5.0 μM)
17 | CCCCNC(=O)N1Cc2ccccc2C2(CCN(C3CCN(C(=O)OCC)CC3)CC2)C1 [compound 106] | 25 to 100 | +++ (activity was measured to be less than 1.0 μM) | 25 to 100 | +++ (activity was measured to be less than 1.0 μM)
18 | CCOC(=O)N1CCC(CN2CCC3(CC2)CN(C(=O)c2ccno2)Cc2ccccc23)CC1 [compound 214] | 25 to 100 | +++ (activity was measured to be less than 1.0 μM) | 25 to 100 | +++ (activity was measured to be less than 1.0 μM)
19 | CC(C)OC(=O)N1C2CCC1CC(N1CCC3(CC1)CN(C(=O)N(C)C)Cc1ccccc13)C2 (stereo not shown) [compound 317] | 25 to 100 | +++ (activity was measured to be less than 1.0 μM) | 25 to 100 | +++ (activity was measured to be less than 1.0 μM)
